In US20220142958A1, “MEDICINAL COMPOSITION HAVING EXCELLENT STABILITY” (EA Pharma Co., Ltd., priority 2019, published 2022):

System: serum Ca concentration
Assay: Serum Ca concentration in bilaterally nephrectomized rats after single intravenous administration
Format: in vivo, rat
Source text: After quarantine and acclimatization periods of 6 days, fifty-one rats (Crl: CD (SD), male) aged 7 weeks were fed a 100% sucrose diet ad libitum from four days before the surgery. On the day of the surgery, skin incisions were made on the back at the sites of the right and left kidneys under isoflurane anesthesia and the renal capsules were removed to ligate the renal arteries and veins and the ureters using threads before removing the right and left kidneys. A penicillin solution was given upon suturing, and 5 mL of physiological saline was intraperitoneally administered before returning the rats into the breeding cages.
On the day of administering the test substance, for example, a day after the bilaterally nephrectomy, approximately 100 μL of blood was collected from the tail vein without anesthesia using a capillary tube, which was centrifuged in a high speed refrigerated microcentrifuge (10,000 rpm, 5 min, 4° C.) to separate the serum. Thereafter, the serum Ca concentration was measured with a dri-chemanalyzer (model number: FUJI DRI-CHEM 7000, manufacturer: FUJI FILM Medical Co., Ltd.) to select individuals with a serum Ca concentration of 8.0 mg/dL or more and less than 14.0 mg/dL.
On a day after the bilaterally nephrectomy, the given doses were calculated based on the weight of the selected animals on that day. Group 1 was given a medium (physiological saline), Groups 2, 3 and 4 were given the Compound A1 solution (0.3, 3 and 30 mg/mL, respectively), and Groups 5, 6, 7 and 8 (5 rats per group) were given the comparative compound (0.3, 1, 3 and 10 mg/mL, respectively), each given a single dose of 1 ml/kg from the tail vein. Prior to the administration (0 hours), and 24 and 48 hours after the administration, approximately 300 μL of blood was collected without anesthesia from the tail vein using capillary tubes for obtaining the serum. The blood for obtaining the serum was left to stand at room temperature, and centrifuged in a high speed refrigerated microcentrifuge (10,000 rpm, 5 min, 4° C.) within a period of 30 minutes to 2 hours after the blood collection to collect the serum.
Thereafter, the serum Ca was analyzed with COBAS analyzer (Model number: COBAS INTEGRA 400 plus, manufacturer: Roche Diagnostics K.K.), and the remaining serum was stored in an ultra-low freezer (temperature set to −80±15° C.) until the day of iPTH measurement. On the day of iPTH measurement, the serum was melted at room temperature for measurement.
A 30 mg/ml Compound A1 solution ([…] of Compound A1 dissolved in 10 ml of physiological saline) was diluted with physiological saline to prepare 0.3 mg/ml and […] Compound A1 solutions.
149 mg of etelcalcetide (Ac-c(C) arrrar-NH2) TFA salt (WO 2011/014707 A) was prepared to have pH of 6 to 8 with 7 ml of physiological saline and a 0.5N aqueous NaOH solution, and physiological saline was further added thereto to make 10 ml. The prepared 10 mg/ml comparative compound solution was diluted with physiological saline to obtain 0.3 mg/ml and 1 mg/ml comparative compound solutions.

Cc1c(Cl)cc(S(=O)(=O)[O-])cc1NC(=O)NC[C@H](N)C(=O)O.[Na+] [Compound A1, sodium 3-{[(2S)-2-amino-2-carboxyethyl]carbamoylamino}-5-chloro-4-methylbenzenesulfonate]
mean serum Ca concentration (0.3 mg/kg single i.v., 24 hours after the administration): 9.07 mg/dL
mean serum Ca concentration (0.3 mg/kg single i.v., 48 hours after the administration): 10.24 mg/dL
mean serum Ca concentration (3 mg/kg single i.v., 24 hours after the administration): 7.97 mg/dL
mean serum Ca concentration (3 mg/kg single i.v., 48 hours after the administration): 8.55 mg/dL
mean serum Ca concentration (30 mg/kg single i.v., 24 hours after the administration): 7.99 mg/dL
mean serum Ca concentration (30 mg/kg single i.v., 48 hours after the administration): 8.14 mg/dL
lower limit value of the serum Ca concentration (simulated) (logistic curve fitting, 48 hours after the administration vs given dose): 8.072 mg/dL
